The results in this text go back to ChEMBL document CHEMBL1201862, “PubChem BioAssay data set” (2004).

Among the test systems are EKVX; SF-268; UO-31; CCRF-CEM; SK-MEL-2; NCI-H226; HT-29; ACHN; HCT-116; K562; UACC-257; NCI-H460; A498; HCT-15; OVCAR-3; CAKI-1; KM12; SK-MEL-28; HCC 2998; SF-539.
Experiment in all cases: NCI anticancer screen, dose series, 48 h

SMILES strings stand for the structures.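 Growth conditions: 96-well plates. Treatment: test compound, 48 hours, 5 concentrations. Analysis: linear interpolation between bracketing concentrations; unreached endpoints set to highest concentration. GI50: concentration for 50% inhibition of growth.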 Active and inactive are the calls of the source. Cut-off read from the data, not from the text of the source: active = GI50 up to about 1.1 µM and inactive = higher.

Turning to `CC(C)=CCC/C(C)=C/CC/C(C)=C/C(O)c1ccccc1` (stereo not given), the GI50 was 20.1 µM (inactive) in the test on EKVX; 18.9 µM (inactive) in the test on SF-268; 21 µM (inactive) with UO-31; 23.1 µM (inactive) in the test on CCRF-CEM; 19.8 µM (inactive) in the test with SK-MEL-2; 30.1 µM (inactive) in the test with NCI-H226. In addition, the GI50 is 18.4 µM (inactive) in the test on HT-29; 17.4 µM (inactive) in the test on ACHN; 17.9 µM (inactive) in the test on HCT-116; 61.4 µM (inactive) in the test with K562; 18.2 µM (inactive) with UACC-257; 19.5 µM (inactive) in the test with NCI-H460. Further, the GI50 is 19.5 µM (inactive) with A498; 18.8 µM in the test on HCT-15; 20.1 µM (inactive) in the test with OVCAR-3; > 10 µM (inactive) in the test with CAKI-1; 23.6 µM (inactive) with KM12.
Turning to `CCN(CC)c1c(C(=O)/C=C/c2ccc(Cl)cc2)c(-c2ccccc2)nn(C)c1=O`, the GI50 is 2.07 µM (inactive) in the test on EKVX; 1.62 µM (inactive) with SK-MEL-28; 1.85 µM (inactive) in the test with HCC 2998; 1.7 µM (inactive) with SF-268; 1.73 µM (inactive) with UO-31; 1.97 µM (inactive) with CCRF-CEM. Besides, the GI50 was 1.93 µM (inactive) with SK-MEL-2; 2.05 µM (inactive) in the test on NCI-H226; 1.77 µM (inactive) in the test with HT-29; 1.87 µM (inactive) in the test with ACHN; 1.67 µM (inactive) with HCT-116; 2.54 µM (inactive) with K562. In addition, the GI50 with UACC-257 is 1.93 µM (inactive); in the test on NCI-H460, 1.93 µM (inactive); in the test on A498, 2.03 µM (inactive); in the test with HCT-15, 1.69 µM; in the test with OVCAR-3 it was 2.16 µM (inactive); with CAKI-1, 3.56 µM (inactive). Besides, the GI50 in the test with KM12 was 1.92 µM (inactive).
Turning to `C1CCCCc2nc3c(nc2CCC1)c1nc2c(nc1c1nc4c(nc31)CCCCCCCC4)CCCCCCCC2`, the GI50 with SK-MEL-28, in the test on HCC 2998, in the test on SF-268, in the test with UO-31, in the test with CCRF-CEM and in the test on SK-MEL-2 was > 100 µM (inactive) throughout. In addition, the GI50 with SF-539, with HT-29, with ACHN, in the test on HCT-116, in the test with K562 and with UACC-257 was > 100 µM (inactive) throughout. Moreover, the GI50 with NCI-H460 is > 100 µM (inactive); with A498, > 100 µM (inactive); in the test with HCT-15, over 100 µM; in the test with CAKI-1, > 10 µM (inactive); with KM12, > 100 µM (inactive).
In the case of `O=C(O)C1CC2C=CCC(C2)C1` (stereo not given), the GI50 with EKVX is > 100 µM (inactive); in the test with SK-MEL-28 it was > 100 µM (inactive); in the test with SF-268 it was > 100 µM (inactive); in the test with UO-31 it was > 100 µM (inactive); in the test with CCRF-CEM it was > 100 µM (inactive); with SK-MEL-2, 91.8 µM (inactive). Further, the GI50 in the test on NCI-H226, in the test on HT-29, with ACHN, with HCT-116, in the test on K562 and in the test with UACC-257 was > 100 µM (inactive) in each case. Further, the GI50 with NCI-H460 was > 100 µM (inactive); in the test on HCT-15, over 100 µM; with OVCAR-3 it was > 100 µM (inactive); with CAKI-1, > 100 µM (inactive); with KM12, > 100 µM (inactive).
Take `C[Si](C)(N[Si](C)(C)OCCc1ccccc1)OCCc1ccccc1`: the GI50 in the test with EKVX, with SK-MEL-28, with HCC 2998, in the test on UO-31, in the test on CCRF-CEM and with SK-MEL-2 was > 100 µM (inactive) each time. Further, the GI50 in the test on NCI-H226, in the test on HT-29, in the test with ACHN, in the test with HCT-116, with UACC-257 and in the test with NCI-H460 was > 100 µM (inactive) in each case. The GI50 was > 100 µM (inactive) with A498; over 100 µM in the test on HCT-15; > 100 µM (inactive) in the test with OVCAR-3; > 100 µM (inactive) in the test on CAKI-1; > 100 µM (inactive) with KM12.
Consider `COc1ccc(Nc2cnc3cc(N)ccc3n2)cc1OC`, for which the GI50 in the test on EKVX is > 100 µM (inactive); with SK-MEL-28, > 100 µM (inactive); in the test with HCC 2998 it was 29.2 µM (inactive); in the test with SF-268, 74.1 µM (inactive); in the test on UO-31, > 100 µM (inactive); with CCRF-CEM, 37.4 µM (inactive). In addition, the GI50 with SK-MEL-2 is 44.3 µM (inactive); with NCI-H226, 53.8 µM (inactive); in the test with HT-29, > 100 µM (inactive); in the test with ACHN, 83.9 µM (inactive); in the test on HCT-116, 86.1 µM (inactive); in the test on K562 it was 46.8 µM (inactive). The GI50 is > 100 µM (inactive) in the test with UACC-257; 23.9 µM (inactive) in the test on NCI-H460; over 100 µM with HCT-15; > 100 µM (inactive) in the test on OVCAR-3; 70.5 µM (inactive) in the test on KM12.
`C1=CCN(c2ccccc2)CC1`: the GI50 in the test on EKVX is 97.1 µM (inactive); in the test on SK-MEL-28, 24.8 µM (inactive); in the test with HCC 2998, 49.9 µM (inactive); in the test with SF-268 it was 36.6 µM (inactive); with UO-31 it was > 100 µM (inactive); in the test on CCRF-CEM, 6.38 µM (inactive). Moreover, the GI50 with SK-MEL-2 is 39.1 µM (inactive); with SF-539, 43.5 µM (inactive); in the test with HT-29, 23.6 µM (inactive); in the test with ACHN, 21.5 µM (inactive); in the test on HCT-116 it was 29.6 µM (inactive); with K562, 30.1 µM (inactive). Moreover, the GI50 in the test on UACC-257 was 28.4 µM (inactive); in the test with NCI-H460, > 100 µM (inactive); in the test with A498 it was > 100 µM (inactive); with HCT-15 it was 14.8 µM; in the test with OVCAR-3 it was 25.4 µM (inactive); with KM12, 64.9 µM (inactive).
For the compound `CCN1CCC(O)(c2ccc(O)cc2)C(C(=O)c2ccc(O)cc2)C1` (stereo not given), the GI50 in the test with EKVX was 28.2 µM (inactive); with SK-MEL-28, 17 µM (inactive); in the test on HCC 2998, > 10 µM (inactive); in the test with SF-268, 39.2 µM (inactive); in the test on UO-31 it was 21.6 µM (inactive); with CCRF-CEM it was 11.5 µM (inactive). In addition, the GI50 in the test with NCI-H226 was 29.3 µM (inactive); with HT-29, 25.8 µM (inactive); in the test on ACHN, 19.8 µM (inactive); in the test on HCT-116, 20.3 µM (inactive); with K562, 12 µM (inactive); in the test on UACC-257, 13.7 µM (inactive). The GI50 was > 100 µM (inactive) in the test on NCI-H460; > 10 µM (inactive) in the test on A498; 17.5 µM in the test on HCT-15; 18.2 µM (inactive) in the test on OVCAR-3; 22.2 µM (inactive) in the test on KM12.
Turning to `C/C(C[n+]1ccccc1)=N\N=C(N)N`, the GI50 with EKVX, with SK-MEL-28, with HCC 2998, in the test with SF-268, with UO-31 and in the test with CCRF-CEM was > 100 µM (inactive) each time. Besides, the GI50 with SK-MEL-2 was 73.8 µM (inactive); in the test on NCI-H226, > 100 µM (inactive); in the test on HT-29 it was > 100 µM (inactive); in the test with ACHN, > 100 µM (inactive); with HCT-116, > 100 µM (inactive); in the test with K562, > 100 µM (inactive). Besides, the GI50 in the test with UACC-257 is > 100 µM (inactive); in the test with NCI-H460, > 100 µM (inactive); in the test with A498, > 100 µM (inactive); in the test with HCT-15, over 100 µM; in the test on OVCAR-3, > 100 µM (inactive); with CAKI-1 it was > 100 µM (inactive). The GI50 with KM12 was > 100 µM (inactive).
For `CC(C)OP(=O)(OC(C)C)/C(F)=N/Nc1ccc([N+](=O)[O-])cc1`, the GI50 in the test with EKVX, in the test on SK-MEL-28, with HCC 2998, with SF-268, with UO-31 and in the test on CCRF-CEM was > 100 µM (inactive) each time. Besides, the GI50 with SK-MEL-2, with SF-539, with HT-29, in the test with ACHN, in the test with HCT-116 and with K562 was > 100 µM (inactive) each time. In addition, the GI50 is > 100 µM (inactive) in the test with UACC-257; > 100 µM (inactive) with NCI-H460; > 100 µM (inactive) in the test on A498; over 100 µM in the test with HCT-15; > 100 µM (inactive) in the test with OVCAR-3; > 100 µM (inactive) in the test on CAKI-1. Further, the GI50 in the test on KM12 was 91.2 µM (inactive).
In the case of `COc1ccc(C[C@H]2COC(=O)[C@@H]2Cc2cccc(Br)c2)cc1OC`, the GI50 is 29.4 µM (inactive) in the test on EKVX; 30.5 µM (inactive) in the test with SK-MEL-28; 24.5 µM (inactive) in the test with HCC 2998; 29.7 µM (inactive) in the test with SF-268; 22.9 µM (inactive) in the test with UO-31; 5.11 µM (inactive) in the test with CCRF-CEM. Besides, the GI50 with SK-MEL-2 was 26 µM (inactive); with SF-539, 19.5 µM (inactive); with NCI-H226, 29.9 µM (inactive); in the test with HT-29, 21.8 µM (inactive); in the test with ACHN, 18.6 µM (inactive); with HCT-116, 12.8 µM (inactive). Besides, the GI50 was 5.97 µM (inactive) in the test on K562; 21.5 µM (inactive) in the test on UACC-257; 26.2 µM (inactive) in the test on NCI-H460; 29.7 µM in the test with HCT-15; 20 µM (inactive) in the test on OVCAR-3; 15.3 µM (inactive) in the test on CAKI-1. In addition, the GI50 with KM12 was 18.8 µM (inactive).
Consider `CC[n+]1c(-c2ccccc2)c2cc(N)ccc2c2ccc(N)cc21` [HOMIDIUM BROMIDE], for which the GI50 in the test on SK-MEL-28 is 2.05 µM (inactive); in the test with HCC 2998 it was 4.79 µM (inactive); in the test with SK-MEL-2, 2.08 µM (inactive); in the test with SF-539 it was 1.53 µM (inactive); with HT-29, 3.67 µM (inactive); in the test on ACHN it was 19 µM (inactive). The GI50 was 3.62 µM (inactive) in the test on HCT-116; 2.96 µM (inactive) in the test with K562; 2.01 µM (inactive) in the test on UACC-257; 5.06 µM (inactive) in the test with NCI-H460; 55.5 µM with HCT-15; 3.07 µM (inactive) with OVCAR-3. Further, the GI50 is 16.9 µM (inactive) with CAKI-1 and 2.49 µM (inactive) in the test with KM12.
